Experiments:
[1] = cited from earlier work
S. aureus bacteria = experiment: zone of inhibition of extract solutions on agar culture plate; assay type: cell-based
Method: A nonwoven rayon gauze material (SofWick, a commercially available rayon gauze material manufactured by Johnson & Johnson) was graft polymerized with diallyldimethylammonium chloride (DADAMC) to 10 weight % poly(DADMAC), to form the cationic cellulose surface. Each gauze substrate treated in this manner measured approximately 40 square inches. One gram samples of cationic cellulose prepared in this manner (sample K), and untreated SofWick (sample L) were each soaked overnight in 25 ml of 0.5% SP solution. Samples were removed and squeezed to remove excess liquid. Samples were then washed in 25 mL of distilled water for one hour with agitation, and then squeezed to remove excess liquid. Each sample was subjected to four sequential extractions using 25 mL of distilled water for one hour at room temperature with agitation. Samples were squeezed to remove excess solution between extraction cycles. A fifth extraction was performed using pH 7.4 phosphate buffered saline (PBS). Saline is expected to remove a greater amount of pyrithione due to ion exchange. The extract solutions were tested for antimicrobial activity by placing single 20 microliter drops of the solutions at marked locations on an agar culture plate spread with ~3×10^3 CFU (continuous lawn) of S. aureus bacteria. Plates were incubated overnight at 37° C., and the diameter of the “zone of inhibition”, or “ZOI” was measured. […]

Molecule	water solubility (aqueous solutions possible) ([1]; aqueous)	ZOI (S. aureus bacteria; 0.01% SP control solution)	ZOI (S. aureus bacteria; 0.1% SP control solution)	max. solubility in water ([1]; water)
[Na+].[O-][n+]1ccccc1[S-] [SP, sodium pyrithione]	> 50 wt %	12 mm	26 mm	–
Zinc pyrithione	–	–	–	0.0015%

Reference: patent US8007921B2, “Gypsum board containing antimicrobial and antibacterial compounds” (Quick-Med Technologies, Inc., priority 2003, dated 2011)
